What was measured:
rats fed with Nath diet [1] = test: Antidyslipaemic effect in rats fed with Nath diet for 45 days (evaluations on 28th and 45th day); assay type: in vivo, female Wistar rats; conditions: for blood triglyceride level: 28th day of treatment, aminoethanethiosulphonic acid dose printed as 10 mg/kg/day, tiadenol 100 mg/kg/day (Group C); for increase in pyruvic transaminase (GPT) level compared with the controls: Nath diet alone 60%; for increase in glutamic oxaloacetic transaminase (GOT) level compared with the controls: Nath diet alone 109%
Protocol: The aminoethanethiosulphonic acid, which constitutes the drug of this invention was tested experimentally on female Wistar rats to establish its antidyslipaemic effect in comparison with drugs already in use therapeutically. For this experiment, the rats were divided into five groups of five rats which were fed in accordance with the following scheme: • GROUP "A": rats fed with a normal diet of nutritive pellets having the following composition: Composition of the nutritive pellets: [formula] with the addition of vitamins (A-D3-E-C), NaCl, CaCO3 and spring water at will. • GROUP "B": rats fed with Nath diet (Nath et al. 1959 - Journal of Nutrition, 67-289). • GROUP "C": rats fed with a Nath diet incorporating the drug tiadenol (1.25 q/kg)such that the rats could take up the drug in quantities of 100 mg/kg/day. • GROUP D: rats fed with a Nath diet incorporating the drug of the invention (1.25 g/kg of aminoethanethiosulphonic acid) such that the rats could take up the drug in quantities of 100 mg/kg/day. • GROUP"E":rats fed with a Nath diet incorporating the drug of the invention (aminoethanethiosulphonic acid) in quantities of 2.5 g/kg, so that the rats could take up the drug in quantities of 200 mg/kg/day.
The experiments were carried out over a period of 45 days. On the 28th day of treatment, the cholesteraemia and the blood triglyceride level of the rats were measured.
On the 45th day from the start of the treatment, however a whole series of systematic weight and hematochemical evaluations was carried out in accordance with the following scheme: • - liver weight/body weight percentage ratio • - ratio of the weight of the liver when removed/dry weight of the liver • - cholesteraemia according to the Watson method (1) • - blood triglyceride level according to the Bermryer method (2) • - blood alkaline phosphatase level (3,4) • - glutamic oxaloacetic transaminase level according to the Karmen method (5,6) • - glutamic pyruvic transaminase level according to the Wroblewski and La-Due method (7) • - total lipid content of the liver by extraction with ether, separation by decantation, evaporation of the ether part in an oven and weighing of the residue. • 1. - WATSON D. (1960) Clin. Chim. Acta, 5 : 637 • 2. - BERGMRYER H.U. (1975) Z. Klin. Chem. and Klin. Biochem.13 : 507 • 3; - Anon. (1970) Z.Klin. Chem. and Klin.Biochem 13 : 507. • 4. - Anon.(1972) Z.Klin. Chem. and Klin. Biochem 13 : 507. • 5. - KARMEN A. and coll. (1955) J. Clin. Invest. 34 : 126. • 6. - KARMEN A. (1955) J. Clin Invest. 34 : 131 • 7. - WROBLEWSKI F. and coll. (1956) Proc. Soc. exp. Biol. Med. 91 : 569.
Macroscopic and microscopic, anatomical-pathological examinations of the liver and of the thoracic aorta were carried out on all the animals, the microscopic examinations being carried out by means of preservation in formalin,enclosure and colouration with hematoxylin- eosin and selective dyes for the lipids according to the current methods.

rats fed with Nath diet [2] = test: Nath diet experiments in the same manner, comparison with other drugs at present in use (25th, 35th, 45th day); assay type: in vivo; conditions: for increase in cholesteraemia: aminoethanethiosulphonic acid 100 mg/kg, phosphorylcholine dose not stated; for increase in triglyceridemia: Nath diet alone 100%
Protocol: Experiments were carried out in the same manner as explained above with other drugs at present in use and, more particularly, phosphorylcholine (2 doses/25 and 50 mg/kg), sillimarine (Legalon, 70 mg/kg), S-adenosyl-1-methionine (Samyr) 25 mg/kg.
In rats fed solely with the Nath diet, the increase is, however, 100%. Among the control drugs, only phosphorylcholine (50 mg/kg) achieves a slight reduction (-20%) relative to the increase observed at the end of the period with the atherogenic diet. • - as regards the cholesteraemia the protective action shown by the drug of the invention was significant. Indeed, in rats fed with the drug phosphorylcholine,a 300% increase was found after 25 days and 320% and 410% increases respectively were found on the 35th and 45th days of feeding while in rats fed with aminoethanethiosulphonic acid (100mg/kq) the increase in cholesteraemia was only 35% on the 25th and on the 35th days. On the 45th day the increase was 50%.

[3] = tested on: liver damage in rats induced by allyl alcohol; test: Activity against liver damage in rats induced by allyl alcohol; assay type: in vivo
Protocol: Experiments were carried out on the activity of the drug of this invention on liver damage in rats induced by allyl alcohol. This damage was evaluated by means of the weight of the liver, the quantity of lipids in the tissue itself and tHe excretion of BSP in the bile, as well as the changes in the GOT, GPT and the alkaline phosphatase levels in the blood.
The respective administrations to the rats were carried out intraperitoneally for 4 days. From the data in Table III it is seen that the weight of the rats'livers increased from […] in rats poisoned with allyl alcohol while the increase was only up to 5.30 mg in rats fed intraperitoneally with allyl alcohol and aminoethanethiosulphonic acid (drug of the invention). When allyl alcohol and the drug known by the name Thiola (100mg/^kg/day) was administered to the rats the liver weight increased to about 5.85 mg.

[4] = tested on: WISTAR RATS KEPT ON A MORRIS DIET; test: Protection in Wistar rats kept on a Morris diet for 45 days; assay type: in vivo; conditions: Morris diet 45 days; (XX) 100 mg/kg, phosphorylcholine 50 mg/kg
Protocol: (§1) Table IV below gives data relative to the protection offered by the administration of aminoethanethiosulphonic acid (100 mg/kg/day) and a control drug (phosphoryl- , choline, 50 mg/kg/day) to groups of Wistar rats subjected to two different atherogenic diets, specifically the Morris diet and the Handler diet, for 45 days. The data, in general, substantially repeated those observed in experiments carried out on aminals subjected to the Nath diet.

[5] = tested on: WISTAR RATS ON A HANDLER DIET; test: Protection in Wistar rats on a Handler diet for 45 days; assay type: in vivo; conditions: Handler diet 45 days; (XX) 100 mg/kg, phosphorylcholine 50 mg/kg
Protocol: as §1

[6] = Toxicology, administration kept up for 180 days; assay type: in vivo; conditions: daily dose of 200 mg/kg of body weight
Solubility in water = assay type: physicochemical
[7] = Stability in the solid state; assay type: physicochemical; conditions: even at 50°C for very long periods of time
rats fed with Nath diet [8] = test: Antidyslipaemic effect in rats fed with Nath diet for 45 days (evaluations on 28th and 45th day); assay type: in vivo, female Wistar rats; conditions: 28th day of treatment, tiadenol 100 mg/kg/day (Group C)
[9] = 100 mg/kg/day i.p. for 4 days, allyl alcohol 2 ml/kg p.o. 30 minutes after last administration
[10] = 100 mg/kg/day i.p. for 4 days, allyl alcohol 2 ml/kg p.o. 30 minutes after last administration, listed as (XX)

SMILES	blood triglyceride level (rats fed with Nath diet [1]) [mg%]	increase in pyruvic transaminase (GPT) level compared with the controls (rats fed with Nath diet [1]; 45th day, 100 mg/kg/day) [%]	increase in glutamic oxaloacetic transaminase (GOT) level compared with the controls (rats fed with Nath diet [1]; 45th day, 100 mg/kg/day) [%]	increase in cholesteraemia (rats fed with Nath diet [2]; 25th day) [%]	increase in cholesteraemia (rats fed with Nath diet [2]; 35th day) [%]	increase in cholesteraemia (rats fed with Nath diet [2]; 45th day) [%]	LIVER Weight [3, 9]	SERUM BSP [3, 9] [µg/mL]	SERUM GOT [3, 9] [mU/ml]	SERUM GPT [3, 9] [mU/ml]	BETALIPOPROTEINS, protection [4] [%]	CHOLESTERAEMIA, protection [4] [%]	HEPATIC LIPIDS, protection [4] [%]	TOTAL BLOOD LIPIDS, protection [4] [%]	CHOLESTERAEMIA, protection [5] [%]	HEPATIC LIPIDS, protection [5] [%]	TOTAL BLOOD LIPIDS, protection [5] [%]	TRIGLYCERIDEMIA, protection [5] [%]	blood cholesterol level (rats fed with Nath diet [8]) [mg%]	also measured
NCCS(=O)(O)=S [aminoethanethiosulphonic acid]	31	90	23	35	35	50	5.30	12.31 ± 0.91	172.0 ± 10.2	25.9 ± 2.5	45	60	50	40	35	50	33	30	129	increase in the hepatic lipid infiltration compared with the control animals (rats fed with Nath diet [1]; 45th day, 100 mg/kg/day, Nath diet alone 235%): 117%; increase in the quantity of lipids in the tissue (hepatic parenchyma) (rats fed with Nath diet [2]; 25th day, 100 mg/kg, Nath diet alone + 155): 50%; increase in the quantity of lipids in the tissue (hepatic parenchyma) (rats fed with Nath diet [2]; 25th day, 200 mg/kg, Nath diet alone + 155): 95%; increase in triglyceridemia (rats fed with Nath diet [2]; 35th day, 100 mg/kg/day): 15%; increase in triglyceridemia (rats fed with Nath diet [2]; 35th day, 200 mg/kg/day): 40%; increase in the quantity of lipids in the tissue (hepatic parenchyma) (rats fed with Nath diet [2]; 45th day, 100 mg/kg, Nath diet alone + 225): 98%; increase in the quantity of lipids in the tissue (hepatic parenchyma) (rats fed with Nath diet [2]; 45th day, 200 mg/kg, Nath diet alone + 225): 110%; LIVER Lipids Tot. [3, 10]: 5.08 ± 0.39 mg%; LIVER Weight [3, 10]: 5.30 ± 0.05; LIVER Lipids Tot. ([3]; 100 mg/kg/day i.p. for 4 days, allyl alcohol 2 ml/kg p.o. 30 minutes after last administration, listed as drug of the invention): 5.08 mg%; mortality [6]: did not result in any increase in mortality; weight curve [6]: nor any variation in the weight curve; solubility in water (Solubility in water): soluble in water; stability in the solid state [7]: considerable stability in the solid state
C[N+](C)(C)CCOP(=O)(O)O [phosphorylcholine, reference compound]				300	320	410					8	12	12	5	15	23	10	7		reduction in triglyceridemia relative to the increase observed at the end of the period with the atherogenic diet (rats fed with Nath diet [2]; 50 mg/kg): -20%
C[S+](CC[C@H](N)C(=O)O)C[C@H]1O[C@@H](n2cnc3c(N)ncnc32)[C@H](O)[C@@H]1O (some centres unmarked) [Samyr, S-adenosyl-1-methionine, reference compound]																				changes in the transaminase levels (GOT and GPT) (rats fed with Nath diet [2]; 35th day of administration): a certain favourable action; protective action as regards the cholesteraemia (rats fed with Nath diet [2]; Legalon 70 mg/kg, Samyr 25 mg/kg, noticeably less than aminoethanethiosulphonic acid): a certain protective action; protection from the point of view of lipid infiltration (rats fed with Nath diet [2]; control drugs compared with aminoethanethiosulphonic acid): protection was found but was only half that given by the aminoethanethiosulphonic acid
OCCSCCCCCCCCCCSCCO [tiadenol, reference compound]	44	100	32																155	
CC(S)C(=O)NCC(=O)O (centres unmarked) [Thiola]							about 5.85 mg	21.78 ± 2.99	388.0 ± 25.8	99.4 ± 12.2										LIVER Lipids Tot. [3, 9]: 5.23 ± 0.30 mg%; SERUM ALKALINE PHOSPHATASE [3, 9]: 3.13 ± 0.23 U/ml; protection against the increase in the total lipid content of the liver ([3]; after allyl alcohol, 100 mg/kg/day i.p.): did not give any protection

Source: patent EP0108854A1, “Drug for stimulating hepatic cell homeostasis and for restoring the functional capacity of the hepatocytes” (ARCONTHORN LIMITED, priority 1982, dated 1984)
